These results are taken from ChEMBL document CHEMBL1201862, “PubChem BioAssay data set” (2004).

In assay [1] the target is T1, Polyadenylate-binding protein 1 (Homo sapiens, UniProt P11940). The assay is described as follows: MLLE binding blockers, Cy5 peptide tracer – biochemical, fluorescence polarization, Cy5-PAM2 peptide, secondary, miRNA deadenylation inhibitor project, dose response (AID 602260). The class given is functional. The following applies: read-out: IC50_Mean. On the technique in general: Fluorescence polarisation rises when a labelled molecule tumbles more slowly, as on binding a larger partner.

Assay [2] deals with T1, Polyadenylate-binding protein 1. The assay is described as follows: MLLE domain peptide-binding blockers, IC50 – biochemical, fluorescence polarization, FITC-PAM2 peptide, dose response (AID 602259). The class given is functional. To be noted: read-out: IC50_Mean.
Another assay has as its target T2, Protein RecA (Mycobacterium tuberculosis, UniProt P9WHJ3).
T2 sequence (P9WHJ3 whole entry): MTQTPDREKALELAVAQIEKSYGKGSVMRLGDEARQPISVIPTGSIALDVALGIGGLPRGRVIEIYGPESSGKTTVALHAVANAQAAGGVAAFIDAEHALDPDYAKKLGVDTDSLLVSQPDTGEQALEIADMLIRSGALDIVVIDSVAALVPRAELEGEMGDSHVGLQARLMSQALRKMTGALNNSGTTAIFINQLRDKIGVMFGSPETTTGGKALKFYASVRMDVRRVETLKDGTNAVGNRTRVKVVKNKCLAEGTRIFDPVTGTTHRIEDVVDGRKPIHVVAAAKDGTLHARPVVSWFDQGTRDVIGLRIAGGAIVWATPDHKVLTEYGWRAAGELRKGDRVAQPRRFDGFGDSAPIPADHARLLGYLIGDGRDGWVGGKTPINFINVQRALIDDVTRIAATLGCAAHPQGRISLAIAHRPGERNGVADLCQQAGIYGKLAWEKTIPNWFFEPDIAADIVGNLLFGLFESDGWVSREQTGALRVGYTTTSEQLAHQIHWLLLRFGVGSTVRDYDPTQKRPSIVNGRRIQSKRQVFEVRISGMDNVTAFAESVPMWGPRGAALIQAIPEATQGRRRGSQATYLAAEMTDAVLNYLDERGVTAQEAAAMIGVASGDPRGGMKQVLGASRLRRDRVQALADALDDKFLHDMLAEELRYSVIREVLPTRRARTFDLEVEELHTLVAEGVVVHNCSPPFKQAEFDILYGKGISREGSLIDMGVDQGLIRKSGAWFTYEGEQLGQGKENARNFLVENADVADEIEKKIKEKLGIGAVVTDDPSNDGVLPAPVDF
The assay is described as follows: Fluorescence Cell-Free Homogeneous Dose Retest to Identify Inhibitors of RecA-Intein Splicing Activity. [Related pubchem assays (depositor defined):AID2097, AID2223, AID489010, AID492950]. The class given is functional.

The target of assay [3] is T3, Replicative DNA helicase DnaB (Mycobacterium tuberculosis, UniProt P9WMR3).
T3 sequence (P9WMR3 whole entry): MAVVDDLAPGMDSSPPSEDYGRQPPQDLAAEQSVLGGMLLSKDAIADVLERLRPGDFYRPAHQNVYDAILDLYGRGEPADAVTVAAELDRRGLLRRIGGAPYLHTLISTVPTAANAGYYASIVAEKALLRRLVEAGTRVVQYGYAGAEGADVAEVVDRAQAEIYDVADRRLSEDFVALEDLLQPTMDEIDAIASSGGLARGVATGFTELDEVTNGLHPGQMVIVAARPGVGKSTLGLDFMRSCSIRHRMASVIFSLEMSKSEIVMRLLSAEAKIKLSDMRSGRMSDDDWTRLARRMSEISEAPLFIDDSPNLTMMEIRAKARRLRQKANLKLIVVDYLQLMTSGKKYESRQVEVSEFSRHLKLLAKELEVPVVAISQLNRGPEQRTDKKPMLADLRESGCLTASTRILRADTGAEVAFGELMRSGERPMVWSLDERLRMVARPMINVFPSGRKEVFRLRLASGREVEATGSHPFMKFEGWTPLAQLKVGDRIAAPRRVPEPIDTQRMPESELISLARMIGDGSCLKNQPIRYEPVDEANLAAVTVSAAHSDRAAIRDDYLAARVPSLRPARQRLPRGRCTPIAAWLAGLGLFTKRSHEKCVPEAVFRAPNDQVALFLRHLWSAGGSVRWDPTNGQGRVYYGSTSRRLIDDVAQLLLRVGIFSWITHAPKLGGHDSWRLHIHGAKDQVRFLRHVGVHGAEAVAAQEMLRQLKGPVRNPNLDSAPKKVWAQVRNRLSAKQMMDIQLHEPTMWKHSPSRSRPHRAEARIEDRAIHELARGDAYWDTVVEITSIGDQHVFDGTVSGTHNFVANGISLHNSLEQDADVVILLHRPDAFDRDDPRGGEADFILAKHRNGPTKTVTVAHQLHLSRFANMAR
The assay is described as follows: DnaB intein splicing inhibitors, dose response, biochemical, cell-free fluorescence (AID 449749). The class given is functional.

In another assay the target is T4, Protein skinhead-1 (Caenorhabditis elegans, UniProt P34707).
T4 sequence (P34707 whole entry): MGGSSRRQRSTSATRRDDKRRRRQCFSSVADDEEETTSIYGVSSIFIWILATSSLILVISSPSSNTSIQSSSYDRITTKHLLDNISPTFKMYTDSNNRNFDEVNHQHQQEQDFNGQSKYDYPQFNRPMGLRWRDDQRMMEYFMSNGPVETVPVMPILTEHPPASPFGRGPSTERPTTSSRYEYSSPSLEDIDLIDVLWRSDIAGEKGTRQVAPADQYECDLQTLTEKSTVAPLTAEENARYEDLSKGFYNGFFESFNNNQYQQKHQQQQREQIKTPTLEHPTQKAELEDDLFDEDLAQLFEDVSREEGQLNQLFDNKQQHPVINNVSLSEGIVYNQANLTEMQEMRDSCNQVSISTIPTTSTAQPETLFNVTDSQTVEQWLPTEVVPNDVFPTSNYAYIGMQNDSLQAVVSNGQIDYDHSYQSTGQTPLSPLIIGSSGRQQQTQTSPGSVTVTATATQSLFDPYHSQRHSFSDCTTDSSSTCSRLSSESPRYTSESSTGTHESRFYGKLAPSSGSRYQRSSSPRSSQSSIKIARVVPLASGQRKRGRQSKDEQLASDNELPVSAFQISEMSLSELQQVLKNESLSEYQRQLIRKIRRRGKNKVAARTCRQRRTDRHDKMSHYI
The class given is functional.

The target of assay [4] is T5, Heat shock factor protein 1 (Mus musculus, UniProt P38532).
T5 sequence (P38532 whole entry): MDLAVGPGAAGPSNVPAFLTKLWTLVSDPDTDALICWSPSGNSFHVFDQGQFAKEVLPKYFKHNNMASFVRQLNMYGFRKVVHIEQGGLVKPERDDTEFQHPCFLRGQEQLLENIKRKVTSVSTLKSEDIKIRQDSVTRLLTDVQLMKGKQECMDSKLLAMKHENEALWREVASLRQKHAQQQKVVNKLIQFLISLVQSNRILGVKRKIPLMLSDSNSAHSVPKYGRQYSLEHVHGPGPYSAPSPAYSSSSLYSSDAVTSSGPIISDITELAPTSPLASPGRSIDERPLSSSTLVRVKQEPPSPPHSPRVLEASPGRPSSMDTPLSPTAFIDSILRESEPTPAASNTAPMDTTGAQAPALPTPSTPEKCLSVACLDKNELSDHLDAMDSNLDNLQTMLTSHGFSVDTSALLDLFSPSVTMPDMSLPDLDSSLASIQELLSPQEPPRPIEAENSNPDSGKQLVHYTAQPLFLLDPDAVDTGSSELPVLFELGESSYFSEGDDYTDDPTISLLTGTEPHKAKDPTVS
Put plainly: decrease of HSF1-responsive luciferase luminescence – cell-based, NIH3T3, dose retest, confirmation (AID 2382).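 Note: NIH3T3 fibroblasts with HSF1-driven luciferase reporter stressed by proteasome inhibitor MG132; luminescence from HSF1-driven luciferase expression after 8 hours of MG132 stress.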 The class given is functional.

Assay [5] concerns the target T6, Zinc finger protein mex-5 (Caenorhabditis elegans, UniProt Q9XUB2).
T6 sequence (Q9XUB2 whole entry): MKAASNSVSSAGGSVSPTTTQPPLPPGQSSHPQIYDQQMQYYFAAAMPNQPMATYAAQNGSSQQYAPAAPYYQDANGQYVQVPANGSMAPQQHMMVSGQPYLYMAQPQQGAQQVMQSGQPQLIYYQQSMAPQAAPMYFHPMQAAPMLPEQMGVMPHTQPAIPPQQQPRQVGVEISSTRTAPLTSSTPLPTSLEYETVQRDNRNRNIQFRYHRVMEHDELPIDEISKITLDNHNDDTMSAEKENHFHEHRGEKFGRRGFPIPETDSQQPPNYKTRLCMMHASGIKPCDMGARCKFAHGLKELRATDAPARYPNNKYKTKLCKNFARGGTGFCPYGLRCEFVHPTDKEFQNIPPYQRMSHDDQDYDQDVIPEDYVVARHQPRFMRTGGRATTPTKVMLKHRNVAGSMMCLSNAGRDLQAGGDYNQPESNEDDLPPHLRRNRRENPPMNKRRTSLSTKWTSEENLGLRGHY
The assay is described as follows: potency of MEX-5 RNA-binding blockers – biochemical, C. elegans, fluorescence polarization, dose response (AID 1960).

The target of assay [6] is T7, RNA-binding protein pos-1 (Caenorhabditis elegans, UniProt G5EF15).
T7 sequence (G5EF15 whole entry): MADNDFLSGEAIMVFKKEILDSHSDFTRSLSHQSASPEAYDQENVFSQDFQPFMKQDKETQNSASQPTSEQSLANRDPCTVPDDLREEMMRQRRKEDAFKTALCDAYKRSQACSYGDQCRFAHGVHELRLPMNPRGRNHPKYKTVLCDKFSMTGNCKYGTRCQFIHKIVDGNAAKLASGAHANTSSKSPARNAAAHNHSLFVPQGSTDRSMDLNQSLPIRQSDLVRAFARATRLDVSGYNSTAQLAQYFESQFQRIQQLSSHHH
The assay is described as follows: disruptors of C. elegans POS-1 RNA interaction – biochemical, fluorescence polarization, dose response (AID 1964).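 Note: purified POS-1 fused to maltose binding protein made in E. coli; potency of compounds blocking POS-1 binding to fluorescent RNA.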

Structures are written as SMILES. Active and inactive are the calls of the source. Where only a bound is given, the exact number is not on record here.

T1 sequence (P11940 whole entry): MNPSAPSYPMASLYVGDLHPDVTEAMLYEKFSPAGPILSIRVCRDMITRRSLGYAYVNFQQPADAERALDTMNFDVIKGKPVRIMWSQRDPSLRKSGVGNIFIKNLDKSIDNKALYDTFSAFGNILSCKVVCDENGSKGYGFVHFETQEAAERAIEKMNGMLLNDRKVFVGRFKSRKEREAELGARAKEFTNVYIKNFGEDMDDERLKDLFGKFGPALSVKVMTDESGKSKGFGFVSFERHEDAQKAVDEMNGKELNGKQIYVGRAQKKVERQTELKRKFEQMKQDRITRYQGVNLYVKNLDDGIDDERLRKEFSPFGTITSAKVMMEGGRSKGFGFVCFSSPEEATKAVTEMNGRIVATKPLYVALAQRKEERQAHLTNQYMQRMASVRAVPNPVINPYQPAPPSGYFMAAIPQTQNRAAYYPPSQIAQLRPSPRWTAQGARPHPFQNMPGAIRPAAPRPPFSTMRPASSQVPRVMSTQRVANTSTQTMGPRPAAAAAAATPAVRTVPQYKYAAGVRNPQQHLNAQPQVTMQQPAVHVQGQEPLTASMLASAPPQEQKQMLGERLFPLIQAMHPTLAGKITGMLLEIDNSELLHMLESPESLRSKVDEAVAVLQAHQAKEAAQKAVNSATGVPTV

Turning to `Cc1nc(NS(=O)(=O)c2ccccc2)sc1NC(=O)OC(C)C`, the IC50 in assay [1] and in assay [2] was > 66 µM (inactive) in each case.

As to `CC1(C)CC2=C(CO1)C(S)=NC(c1ccccc1)N2CC1CCCO1` (stereo unspecified), the IC50 in assay [1] and in assay [2] was > 66 µM (inactive) each time.

For orientation: EC50 means the midpoint of the concentration-response curve. What is called AC50 is the concentration giving half of the maximal activity seen. `N#CC1=C(N)Oc2[nH]nc(-c3cccs3)c2C1c1cccs1` (stereo unspecified): the EC50 at Protein RecA was 2.02 µM (active). In assay [3], the AC50 is 2.63 µM (active).

Regarding `COCC(=O)NCc1ccc2c(c1)cc(C)n2C`, the IC50 on Protein skinhead-1 is > 100 µM (inactive).

Regarding `Cn1c(=O)c2c(O)cc(N)nc2n(C)c1=O`, the figures for the IC50 in assay [1] and in assay [2] were > 66 µM (inactive) and 56.2 µM (inactive), respectively.

For the molecule `COCCOC(=O)C1=C(C)N=C2SCCC(=O)N2C1c1ccc(OC(=O)c2ccco2)cc1` (stereo unspecified), at Protein RecA, the EC50 was 14 µM (active). In assay [3], the AC50 is 19.8 µM (active).

Regarding `Cn1nnnc1SCC(=O)N1CCN(c2cccc(Cl)c2)CC1`, the IC50 on Protein skinhead-1 is > 100 µM (inactive).

As for `CC(=O)Nc1ccc(S(=O)(=O)NCC(=O)N2CCN(S(=O)(=O)c3cccs3)CC2)cc1`, the IC50 in assay [1] and in assay [2] was > 66 µM (inactive) each time.

As to `CCN(CC)C(=O)Oc1ccc(Br)c2ccccc12`, on Protein skinhead-1, the IC50 is > 100 µM (inactive).

In the case of `O=C(Nc1ccc(Cl)cc1)C1c2cccc[n+]2CC(=O)N1Cc1ccc2c(c1)OCO2` (stereo unspecified), at Protein RecA, the EC50 was 13.3 µM (active). Further, the AC50 in assay [3] is > 380 µM (inactive).

For `O=C(Nc1ccc(-c2nnc(-c3ccccc3)o2)cc1)c1ccc(Br)o1`, at Protein skinhead-1, the IC50 was 76.3 µM (inactive).

Take `COc1cc(NC(S)=Nc2ccc(N(C)C(C)=O)cc2)cc(OC)c1`: the IC50 in assay [1] and in assay [2] was > 66 µM (inactive) each time.

For the molecule `CC1=NN(c2ccccc2)C(=O)/C1=C\c1c[nH]nc1-c1ccccc1`, the EC50 at Protein RecA is 2.54 µM (active). For the same molecule, the AC50 in assay [3] was 4.1 µM (active).

As for `COc1ccc(-c2c(=O)n(OC)c3ccccc3[n+]2[O-])cc1OC`, at Protein RecA, the EC50 is > 380 µM (inactive). Moreover, the AC50 in assay [3] is > 380 µM (inactive).

For the molecule `COc1ccc(OCCCC(=O)OCC(=O)Nc2ncc(Cl)cc2Cl)cc1`, the IC50 was > 66 µM (inactive) in assay [1] and 30.3 µM (inactive) in assay [2].

Turning to `COCc1n[nH]c2c1C1(CCSCC1)C(C#N)=C(N)O2`, the figures for the EC50 (at Protein RecA; in assay [4]) were 2.26 µM (active) and > 195 µM (not active), respectively. Moreover, in assay [3], the concentration at half-maximal activity (AC50) is 18.5 µM (active).

For the molecule `CCCCC1OC23CCCCC2C(C#N)(C(=N)O3)C1(C#N)C#N` (stereo unspecified), the IC50 in assay [1] and in assay [2] was > 66 µM (inactive) each time.

On to `Cc1[nH]nc2c1C1(CCC(c3ccccc3)CC1)C(C#N)=C(N)O2` (stereo unspecified), for which the EC50 on Protein RecA was 1.51 µM (active). Moreover, the AC50 in assay [3] was 5.82 µM (active).

`COc1cc(C2C(C#N)=C(N)Oc3c2c(-c2ccccc2)nn3-c2ccccc2)cc(OC)c1OC` (stereo unspecified): the EC50 at Protein RecA is 27.9 µM (active). Moreover, the half-maximal activity concentration (AC50) in assay [3] was 26.8 µM (active).

On to `COc1ccc(C(=O)NC(=S)NC2CCSC2=O)cc1` (stereo unspecified), for which the IC50 in assay [1] and in assay [2] was > 66 µM (inactive) in each case.

Take `COc1ccc(NC(=O)C2Cc3ccccc3CN2C(=O)c2ccccc2)cn1` (stereo unspecified): the concentration for a half-maximal effect (EC50) was > 300 µM (inconclusive) in assay [5] and 25.1 µM (active) in assay [6]. The IC50 in assay [1] was > 66 µM (inactive); in assay [2], 13.1 µM (active).

Take `C(=C\c1nc(-c2ccncc2)no1)/c1ccccc1`: the IC50 on Protein skinhead-1 was 12.4 µM (active).

Take `CCCn1c(=C(C#N)C#N)s/c(=C2\C=Cc3ccccc3N2CC)c1=O`: the IC50 in assay [1] and in assay [2] was > 66 µM (inactive) throughout.

Consider `S=C(c1ccc(Cl)cc1)N1CCOCC1` [(4-CHLOROPHENYL)(MORPHOLINO)METHANETHIONE], for which the IC50 in assay [1] and in assay [2] was > 66 µM (inactive) throughout.
